Assay results reported in ChEMBL document CHEMBL3886941 (2016).

molecular target: Transient receptor potential M8 protein (Canis lupus familiaris, UniProt Q1A7N1); experiment: Functional Assay: The functional activity of compounds of the formula (I) was determined by measuring changes in intracellular calcium concentration using a Ca2+-sensitive fluorescent dye. The changes in fluorescent signal were monitored by a fluorescence plate reader, either a FLIPR (Molecular Devices) or FDSS (Hamamatsu). Increases in intracellular Ca2+ concentration were readily detected upon activation with icilin.At 24 hrs prior to assay, HEK293 cells stably expressing canine TRPM8 were seeded in culture medium in black wall, clear-base poly-D-lysine coated 384-well plates (BD Biosciences, NJ, USA) and grown overnight in 5% CO2 at 37° C. On assay day, growth media was removed and cells were loaded with Calcium 3 Dye (Molecular Devices) for 35 min at 37° C., under 5% CO2 and then for 25 min at room temperature and atmosphere. Subsequently, cells were tested for agonist-induced increases in intracellular Ca2+ levels using FLIPR or FDSS. Cells were challenged with a compound of the Formula (I) (at varying concentrations) and intracellular Ca2+ was measured for 5 min prior to the addition of icilin to all wells to achieve a final concentration that produces approximately an 80% maximal response. EC50 or IC50 values for compounds of the present invention were determined from eight-point dose-response studies.; type: cell-based
Sequence (Q1A7N1 whole entry): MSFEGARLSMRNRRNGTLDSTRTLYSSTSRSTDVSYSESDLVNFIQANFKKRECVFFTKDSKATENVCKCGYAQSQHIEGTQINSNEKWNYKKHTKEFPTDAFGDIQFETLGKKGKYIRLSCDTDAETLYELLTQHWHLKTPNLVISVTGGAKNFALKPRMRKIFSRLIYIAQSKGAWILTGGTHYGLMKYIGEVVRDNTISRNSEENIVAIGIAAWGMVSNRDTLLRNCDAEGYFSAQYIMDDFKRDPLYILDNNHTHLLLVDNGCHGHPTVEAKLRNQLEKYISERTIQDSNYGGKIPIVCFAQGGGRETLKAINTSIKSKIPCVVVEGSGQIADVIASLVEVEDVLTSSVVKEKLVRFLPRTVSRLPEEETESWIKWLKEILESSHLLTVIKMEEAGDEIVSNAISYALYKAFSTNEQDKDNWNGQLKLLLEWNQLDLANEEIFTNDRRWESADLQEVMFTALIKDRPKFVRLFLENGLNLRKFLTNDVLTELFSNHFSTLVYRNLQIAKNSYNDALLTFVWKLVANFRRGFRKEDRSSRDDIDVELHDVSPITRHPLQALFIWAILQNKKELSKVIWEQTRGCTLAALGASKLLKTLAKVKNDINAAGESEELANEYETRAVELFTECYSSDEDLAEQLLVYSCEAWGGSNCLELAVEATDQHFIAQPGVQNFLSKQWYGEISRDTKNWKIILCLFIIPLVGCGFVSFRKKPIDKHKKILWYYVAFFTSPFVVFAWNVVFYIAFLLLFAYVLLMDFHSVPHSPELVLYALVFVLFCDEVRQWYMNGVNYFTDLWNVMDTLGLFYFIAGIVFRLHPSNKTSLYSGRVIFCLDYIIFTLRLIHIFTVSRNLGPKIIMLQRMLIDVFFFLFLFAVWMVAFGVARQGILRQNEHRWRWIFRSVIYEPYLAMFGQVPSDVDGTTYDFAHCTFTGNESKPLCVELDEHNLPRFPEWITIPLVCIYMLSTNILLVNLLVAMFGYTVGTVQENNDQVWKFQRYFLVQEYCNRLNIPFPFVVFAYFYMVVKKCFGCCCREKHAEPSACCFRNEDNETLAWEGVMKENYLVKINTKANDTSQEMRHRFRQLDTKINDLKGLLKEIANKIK

`Cc1c(N(Cc2ccc3c(c2)OC(F)(F)O3)S(=O)(=O)c2ccc(C(=O)O)cc2)sc2ccccc12` was tested. Which IC50 did it give?
The IC50 was 2 nM.

`O=c1[nH]c(-c2ccc(S(=O)(=O)N(CCCCC(F)(F)F)c3sc4ccccc4c3Br)cc2)no1` was tested. Which IC50 did it give?
Its IC50 is 7.9 nM.

`Cc1c(N(Cc2cc(Cl)ccc2Cl)S(=O)(=O)c2ccc(C(=O)O)cc2)sc2ccccc12` was tested. Which IC50 did it give?
Its IC50 is 9 nM.

`CCS(=O)(=O)N(Cc1ccc(F)c(F)c1)c1sc2ccccc2c1C(C)=O` was tested. Which IC50 did it give?
Its IC50 is 15 nM.

`CCCCN(c1sc2ccccc2c1C(C)O)S(=O)(=O)CC` (centres undefined) was tested. Which IC50 did it give?
Its IC50 is 38 nM.

Which IC50 does the source give for `CCCN(c1sc2ccccc2c1C)S(=O)(=O)c1ccc(C(=O)O)cc1` here?
The IC50 was 53 nM.

How did the IC50 turn out when `COc1ccc(CN(c2sc3ccccc3c2C)S(=O)(=O)c2ccc(C(=O)O)cc2)cc1OC` was run?
The IC50 was 6 nM.

`O=c1[nH]c(-c2ccc(S(=O)(=O)N(CCC(F)(F)F)c3sc4ccccc4c3Br)cc2)no1` was tested. Which IC50 did it give?
The IC50 was 18.1 nM.

`O=S(=O)(c1ccc(-c2nnn[nH]2)cc1)N(CCC(F)(F)F)c1sc2ccccc2c1Br` was tested. Which IC50 did it give?
The IC50 was 19 nM.

For `O=S(=O)(c1cccs1)N(Cc1ccc(F)c(C(F)(F)F)c1)c1sc2ccccc2c1Cl`, which IC50 is on record?
The IC50 was 6 nM.

`Cc1c(N(Cc2ccccc2)S(=O)(=O)c2ccc(C(=O)O)cc2)sc2ccccc12` was tested. Which IC50 did it give?
Its IC50 is 4 nM.

How did the IC50 turn out when `O=S(=O)(c1ccc(-c2nnn[nH]2)cc1)N(CCC1CC1)c1sc2ccccc2c1Br` was run?
Its IC50 is 6 nM.

`CC(C)(C)OC(=O)N1CCCC1CN(c1sc2ccccc2c1Cl)S(=O)(=O)c1ccccc1` (centres undefined) was tested. Which IC50 did it give?
The IC50 was 205 nM.

How did the IC50 turn out when `O=S(=O)(c1ccc(-c2nnn[nH]2)cc1)N(CCCCC(F)(F)F)c1sc2ccccc2c1Br` was run?
Its IC50 is 8.8 nM.

For `O=[N+]([O-])c1cccc(CN(c2sc3ccccc3c2Br)S(=O)(=O)c2ccccc2)c1`, which IC50 is on record?
Its IC50 is 10.4 nM.

Which IC50 does the source give for `O=S(=O)(c1ccccc1)N(CCc1ccccc1)c1sc2ccccc2c1Cl` here?
The IC50 was 24 nM.

With `CCS(=O)(=O)N(Cc1ccc(F)c(OC)c1)c1sc2ccccc2c1C(C)(C)O` as the molecule, how does the IC50 read?
Its IC50 is 4.1 nM.

How did the IC50 turn out when `COC(=O)CCS(=O)(=O)N(CCC(F)(F)F)c1sc2ccccc2c1C` was run?
The IC50 was 24.1 nM.

With `O=S(=O)(CC(F)(F)F)N(Cc1ccc(F)c(C(F)(F)F)c1)c1sc2ccccc2c1CO` as the molecule, how does the IC50 read?
The IC50 was 15 nM.
